Reference: ChEMBL document CHEMBL1156313, “Structure-activity relationship of novel DAPK inhibitors identified by structure-based virtual screening” (Bioorg Med Chem, 2010)
pIC50: −log10 of the molar value.

Tests used:
[1] = target: T1, Death-associated protein kinase 3 (Homo sapiens, UniProt O43293); test: Inhibition of human recombinant DAPK3 at 1 uM
Target sequence in this assay (O43293 whole entry, looked up): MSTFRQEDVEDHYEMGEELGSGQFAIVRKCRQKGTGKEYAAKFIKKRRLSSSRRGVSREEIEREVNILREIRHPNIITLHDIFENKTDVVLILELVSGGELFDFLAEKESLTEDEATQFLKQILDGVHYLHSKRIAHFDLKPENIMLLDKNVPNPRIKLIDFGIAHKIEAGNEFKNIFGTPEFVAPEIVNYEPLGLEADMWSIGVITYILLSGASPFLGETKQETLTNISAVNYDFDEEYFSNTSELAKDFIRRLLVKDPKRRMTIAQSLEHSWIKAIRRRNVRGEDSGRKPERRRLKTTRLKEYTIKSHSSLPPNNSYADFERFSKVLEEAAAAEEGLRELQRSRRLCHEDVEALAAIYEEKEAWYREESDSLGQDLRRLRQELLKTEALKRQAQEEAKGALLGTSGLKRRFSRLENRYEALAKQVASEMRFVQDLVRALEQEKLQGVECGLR

[2] = target: T1, Death-associated protein kinase 3; test: Inhibition of human recombinant DAPK3
Target sequence in this assay (O43293 whole entry): as the sequence (O43293 whole entry, looked up) above

[3] = target: T1, Death-associated protein kinase 3; test: Inhibition of human recombinant DAPK3 at 10 uM
Target sequence in this assay (O43293 whole entry, looked up): as above

Row | SMILES | inhibition [1] [%] | pIC50 [2] | inhibition [3] [%]
1 | O=C1OC(c2cccc(Cl)c2)=N/C1=C\c1cccnc1 | 85 | 6.44 | 97
2 | O=C1OC(c2ccc([N+](=O)[O-])cc2)=N/C1=C\c1cccnc1 | 90 | 6.54 | 94
3 | O=C1OC(c2ccc([N+](=O)[O-])cc2)=N/C1=C\c1ccncc1 | 0 | – | 2
4 | COc1cccc(C2=N/C(=C\c3cccnc3)C(=O)O2)c1 | 99 | 6.40 | 100
5 | O=C1OC(c2ccc(Cl)cc2Cl)=N/C1=C\c1cccnc1 | 42 | – | 78
6 | O=C1OC(c2cc(I)ccc2Cl)=N/C1=C\c1ccncc1 | 83 | 6.64 | 97
7 | O=C1OC(c2cccc([N+](=O)[O-])c2)=N/C1=C\c1ccncc1 | 0 | – | 0
8 | O=C1OC(c2ccc(Cl)cc2)=C/C1=C\c1cccnc1 | – | – | 3
9 | O=C1OC(c2ccc(Cl)c([N+](=O)[O-])c2)=N/C1=C\c1cccnc1 | 100 | 6.56 | 100
10 | COc1ccc(C2=N/C(=C\c3cccnc3)C(=O)O2)cc1Br | 32 | – | 32
11 | O=C1OC(c2cccc(Br)c2)=N/C1=C\c1ccncc1 | 1 | – | 0
12 | Cc1ccc(C2=N/C(=C\c3cccnc3)C(=O)O2)cc1[N+](=O)[O-] | 72 | 6.27 | 90
13 | O=C1N=C(N2CCCCC2)S/C1=C\c1cccnc1 | – | – | 29
14 | O=C1OC(c2cccc(Br)c2)=N/C1=C\c1cccnc1 | 100 | 6.83 | 100
15 | O=C1OC(c2ccc(Cl)c([N+](=O)[O-])c2)=N/C1=C\c1ccncc1 | 0 | – | 10
16 | O=C1OC(c2ccccc2)=N/C1=C\c1ccccc1 | – | – | 4
17 | COc1cc(C2=N/C(=C\c3cccnc3)C(=O)O2)cc(OC)c1OC | 26 | – | 33
18 | O=C1OC(c2ccccc2)=N/C1=C\c1ccncc1 | 0 | – | 1
19 | O=C1OC(C23CC4CC(CC(C4)C2)C3)=N/C1=C\c1cccnc1 | – | – | 45
20 | COc1ccc(C2=N/C(=C\c3cccnc3)C(=O)O2)cc1OC | 14 | – | 36
21 | COc1ccc(C2=N/C(=C\c3cccnc3)C(=O)O2)c(Br)c1 | 100 | 6.80 | 92
